Test results taken from patent publication US4992420A, “Dental anti-plaque and anti-caries agent” (priority 1987, dated 1991).

Experiments:
S. mutans OMZ 176 = assay: Inhibition of bacterial adhesion to plastic (polypropylene) tubes, S. mutans; details: for inhibition at 1000 µg/mL: Streptococcus mutans, OMZ176, 4 h, read-out: Inhibition (%) of adhesion to plastic tubes, S. mutans OMZ 176; for Inhibition (%) of adhesion to plastic tubes, S. mutans OMZ 176: 1 mg/ml, 4 h
A. viscosus OMZ 105 [1] = assay: microbe, parasite or virus in culture; details: Actinomyces viscosus, OMZ105, 4 h, read-out: Inhibition (%) of adhesion to plastic tubes, A. viscosus OMZ 105
S. sanguis OMZ 9 [2] = assay: microbe, parasite or virus in culture; details: Streptococcus, OMZ9, 4 h, read-out: Inhibition (%) of adhesion to plastic tubes, S. sanguis OMZ 9
S. sanguis OMZ 9 [3] = details: for Inhibitory effect on adhesion to plastic tubes (in words), S. sanguis OMZ 9: preliminary tests; for Inhibition (%) of adhesion to plastic tubes, S. sanguis OMZ 9: 1 mg/ml, 4 h
A. viscosus OMZ 105 [4] = details: for Inhibitory effect on adhesion to plastic tubes (in words), A. viscosus OMZ 105: preliminary tests; for Inhibition (%) of adhesion to plastic tubes, A. viscosus OMZ 105: 1 mg/ml, 4 h
A. naeslundii ATCC 12104 = details: desialylated human erythrocytes (A+); no control of bacterial growth phase; none = no inhibition up to 20 mg/ml
A. viscosus OMZ 206 = assay: Inhibition of bacterial adhesion to plastic (polypropylene) tubes, A. viscosus OMZ 206; details: Actinomyces viscosus, OMZ206, 4 h, read-out: Inhibition (%) of adhesion to plastic tubes, A. viscosus OMZ 206
A. viscosus OMZ 105 [5] = tested on: A. viscosus OMZ 105

O=C[C@H](O)[C@@H](O)[C@@H](O)[C@H](O)CO [Galactose]
inhibition at 1000 µg/mL (S. mutans OMZ 176): 4%
inhibition at 1000 µg/mL (A. viscosus OMZ 105 [1]): 12%
inhibition at 1000 µg/mL (S. sanguis OMZ 9 [2]): 12%

O=C[C@H](O)[C@@H](O)[C@H](O)[C@H](O)CO [glucose]
Inhibitory effect on adhesion to plastic tubes (in words), S. sanguis OMZ 9 (S. sanguis OMZ 9 [3]): nonactivity
Inhibitory effect on adhesion to plastic tubes (in words), A. viscosus OMZ 105 (A. viscosus OMZ 105 [4]): nonactivity

OC[C@H]1O[C@@H](O[C@H]2[C@H](O)[C@@H](O)C(O)O[C@@H]2CO)[C@H](O)[C@@H](O)[C@H]1O (stereo partly shown) [Lactose]
Minimum concentration resulting in complete inhibition of hemagglutination, A. naeslundii ATCC 12104 (A. naeslundii ATCC 12104): none
inhibition at 1000 µg/mL (A. viscosus OMZ 206): 15%
inhibition at 1000 µg/mL (S. mutans OMZ 176): 4%
Minimum concentration resulting in complete inhibition of hemagglutination, expressed in galactoside equivalents/ml (A. viscosus OMZ 105 [5]; A. viscosus OMZ harvested in the exponential phase, desialylated human erythrocytes (A+)): > 10 mg/mL
Minimum concentration resulting in complete inhibition of hemagglutination, expressed in dry weight/ml (A. viscosus OMZ 105 [5]; A. viscosus OMZ harvested in the exponential phase, desialylated human erythrocytes (A+), none = no inhibition up to 20 mg/ml): none
Minimum concentration resulting in complete inhibition of hemagglutination, A. viscosus OMZ 105 (A. viscosus OMZ 105 [5]; desialylated human erythrocytes (A+), no control of bacterial growth phase, none = no inhibition up to 20 mg/ml): none
Inhibition of hemagglutinations governed by type 2 pili (in words) (A. viscosus OMZ 105 [5]; summary of Tables I and II): completely ineffective
inhibition at 1000 µg/mL (A. viscosus OMZ 105 [1]): 14%
inhibition at 1000 µg/mL (S. sanguis OMZ 9 [2]): 12%

Polyglutamic acid
Inhibition (%) of adhesion to plastic tubes, S. sanguis OMZ 9 (S. sanguis OMZ 9 [3]): 6%
Inhibition (%) of adhesion to plastic tubes, S. mutans OMZ 176 (S. mutans OMZ 176): 20%
Inhibition (%) of adhesion to plastic tubes, A. viscosus OMZ 105 (A. viscosus OMZ 105 [4]): 22%

COC1OC(CO)C(O)C(O)C1O (stereo not drawn) [Methyl α mannoside]
Inhibition (%) of adhesion to plastic tubes, S. sanguis OMZ 9 (S. sanguis OMZ 9 [3]): 11%
Inhibition (%) of adhesion to plastic tubes, S. mutans OMZ 176 (S. mutans OMZ 176): 3%
Inhibition (%) of adhesion to plastic tubes, A. viscosus OMZ 105 (A. viscosus OMZ 105 [4]): 10%

Polylysine
Inhibition (%) of adhesion to plastic tubes, S. sanguis OMZ 9 (S. sanguis OMZ 9 [3]): 12%
Inhibition (%) of adhesion to plastic tubes, S. mutans OMZ 176 (S. mutans OMZ 176): 30%
Inhibition (%) of adhesion to plastic tubes, A. viscosus OMZ 105 (A. viscosus OMZ 105 [4]): 46%

NCC(=O)O [glycine]
Inhibitory effect on adhesion to plastic tubes (in words), S. sanguis OMZ 9 (S. sanguis OMZ 9 [3]): nonactivity
Inhibitory effect on adhesion to plastic tubes (in words), A. viscosus OMZ 105 (A. viscosus OMZ 105 [4]): nonactivity
